The target in assay [1] is Beta Secretase enzyme (BACE1) (Homo sapiens, UniProt P56817). Put plainly: In vitro enzymatic BACE FRET assay. The note with it: read-out: BACE1 FRET assay IC50. The class given is biochemical. Summed up: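 BACE1 cleavage of a 50 nM fluorophore/quencher peptide FRET substrate ran for one hour in 0.05 M acetate pH 4.2, 10% DMSO, 100 uM genapol. Tris buffer raised pH to neutrality to stop the reaction before fluorescence was read (excitation 488 nm, […]).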

Assay [2] concerns Aβ40 in conditioned medium of cells stably expressing Amyloid Precursor Protein (APP). Put plainly: In vitro BACE cell-based assay (HEK cell assay), Aβ40 sandwich ELISA. The note with it: Homo sapiens, HEK293. Summed up:
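APP-stably expressing cells (40K/well, grown 24 h in DMEM/10% FBS) were treated 24 h with compounds in 10-point dose response starting at 100 μM or 10 μM, 0.1% DMSO final. Secreted Aβ40 was measured by sandwich ELISA (pAb40 capture, biotinylated 6E10 detection, europium time-resolved fluorescence); IC50 from percent inhibition.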
Background: An ELISA detects its analyte on a solid surface through an enzyme-linked reagent.

Another assay deals with T1, Cathepsin D (Cat D) (Homo sapiens, UniProt P07339).
T1 construct: Recombinant Cat D was expressed in CHO cells; made in house; host or cells: CHO cells
T1 sequence (P07339 65-412, species assumed): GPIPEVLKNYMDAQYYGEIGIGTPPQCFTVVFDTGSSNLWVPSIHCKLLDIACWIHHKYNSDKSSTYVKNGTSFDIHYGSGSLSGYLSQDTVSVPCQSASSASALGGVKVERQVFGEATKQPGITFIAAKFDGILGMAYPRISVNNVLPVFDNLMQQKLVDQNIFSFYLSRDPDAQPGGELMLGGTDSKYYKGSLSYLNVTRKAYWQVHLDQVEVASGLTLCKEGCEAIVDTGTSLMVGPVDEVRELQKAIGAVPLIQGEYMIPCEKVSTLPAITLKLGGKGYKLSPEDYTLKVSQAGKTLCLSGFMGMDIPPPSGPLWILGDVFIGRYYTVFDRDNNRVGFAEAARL
Put plainly: In vitro enzymatic Cathepsin D (Cat D) FRET assay. The note with it: read-out: CatD IC50. The class given is biochemical. Put shortly: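 Recombinant Cat D expressed in CHO cells, used at 9 nM and pre-incubated one hour with serially diluted inhibitor in DMSO. Peptide substrate carries a fluorophore and quencher flanking the cleavage site; reaction stopped with Tris buffer raising pH to neutrality, then fluorescence read.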

Read-outs that look alike come from different tables or passages of the source. Where only a bound is given, the exact number is not on record here.

Beta Secretase enzyme (BACE1), sequence (P56817 46-501): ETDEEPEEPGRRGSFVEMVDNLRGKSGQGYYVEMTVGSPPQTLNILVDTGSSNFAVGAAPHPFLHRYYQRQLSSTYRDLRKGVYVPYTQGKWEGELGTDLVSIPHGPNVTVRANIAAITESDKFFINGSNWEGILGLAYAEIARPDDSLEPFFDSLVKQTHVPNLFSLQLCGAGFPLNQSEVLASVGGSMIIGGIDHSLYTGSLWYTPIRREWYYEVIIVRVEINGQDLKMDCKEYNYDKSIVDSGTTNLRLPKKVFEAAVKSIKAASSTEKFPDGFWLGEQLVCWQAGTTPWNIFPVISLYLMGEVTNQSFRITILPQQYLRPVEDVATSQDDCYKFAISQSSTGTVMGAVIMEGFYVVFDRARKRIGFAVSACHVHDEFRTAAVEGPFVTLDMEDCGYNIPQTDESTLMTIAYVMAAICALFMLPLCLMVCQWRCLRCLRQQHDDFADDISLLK

The term IC50 denotes the concentration that gives 50% inhibition. In the case of `COc1cnc2c(Nc3ccc(F)c([C@]4(CF)CS(=O)(=O)C5(CCC5)C(N)=N4)c3)nccc2c1` [Example 239, N-(3-((7S)-9-amino-7-(fluoromethyl)-5,5-dioxido-5-thia-8-azaspiro[3.5]non-8-en-7-yl)-4-fluorophenyl)-3-methoxy-1,7-naphthyridin-8-amine], the half-inhibitory concentration (IC50) turned out to be 0.00415 µM in assay [1] (average IC50, enzyme assay); 0.0237 µM in assay [2] (average IC50, cell assay); 390 µM at Cathepsin D (Cat D).
For the compound `CC1(C)C(N)=N[C@](C)(c2cc(Oc3ncccc3C#N)ccc2F)CS1(=O)=O` [Example 306, 2-(3-((3R)-5-amino-3,6,6-trimethyl-1,1-dioxido-3,6-dihydro-2H-1,4-thiazin-3-yl)-4-fluorophenoxy)-3-pyridinecarbonitrile], the IC50 in assay [1] (average IC50, enzyme assay) was 0.256 µM; in assay [2] (average IC50, HEK cell assay), 0.241 µM; at Cathepsin D (Cat D), 218 µM.
On to `Cc1cc(OC(F)F)cnc1C(=O)Nc1ccc(F)c([C@]2(CF)CS(=O)(=O)C(C)(C)C(N)=N2)c1` [Example 148, (S)—N-(3-(5-amino-3-(fluoromethyl)-6,6-dimethyl-1,1-dioxido-3,6-dihydro-2H-1,4-thiazin-3-yl)-4-fluorophenyl)-5-(difluoromethoxy)-3-methylpicolinamide], for which the IC50 in assay [1] turned out to be 0.00163 µM; in assay [2], 0.0091 µM; on Cathepsin D (Cat D) it was 213 µM.
On to `Cc1cc(OCC2CCC2)cnc1C(=O)Nc1ccc(F)c([C@]2(CF)CS(=O)(=O)C(C)(C)C(N)=N2)c1` [Example 151, (S)—N-(3-(5-amino-3-(fluoromethyl)-6,6-dimethyl-1,1-dioxido-3,6-dihydro-2H-1,4-thiazin-3-yl)-4-fluorophenyl)-5-(cyclobutylmethoxy)-3-methylpicolinamide], for which the IC50 is 0.0017 µM in assay [1], 0.1 µM in assay [2] and 232 µM at Cathepsin D (Cat D).
Turning to `COc1cnc(C(=O)Nc2ccc(F)c([C@]3(C)CS(=O)(=O)CC(N)=N3)c2)cn1` [Example 28, N-(3-((3R)-5-amino-3-methyl-1,1-dioxido-3,6-dihydro-2H-1,4-thiazin-3-yl)-4-fluorophenyl)-5-methoxy-2-pyrazinecarboxamide], the IC50 amounted to 0.0149 µM in assay [1]; 0.068 µM in assay [2] (Aβ40, 24 h incubation); 50.9 µM at Cathepsin D (Cat D).
As to `Cc1cnc(C(=O)Nc2ccc(F)c([C@]3(CF)CS(=O)(=O)C(C)(C)C(N)=N3)c2)c(C)c1` [Example 360, N-(3-((3S)-5-amino-3-(fluoromethyl)-6,6-dimethyl-1,1-dioxido-3,6-dihydro-2H-1,4-thiazin-3-yl)-4-fluorophenyl)-3,5-dimethyl-2-pyridinecarboxamide], the IC50 in assay [1] (average IC50, enzyme assay) stood at 0.00299 µM; in assay [2] (average IC50, HEK cell assay) it was 0.0245 µM; at Cathepsin D (Cat D), 636 µM.
Turning to `CC1(C)C(N)=N[C@](C)(c2cc(Nc3nccc4cc(Cl)cnc34)cc(F)c2F)CS1(=O)=O` [Example 69, (R)-5-Amino-3-(5-((3-chloro-1,7-naphthyridin-8-yl)amino)-2,3-difluorophenyl)-3,6,6-trimethyl-3,6-dihydro-2H-1,4-thiazine 1,1-dioxide], the IC50 in assay [1] is 0.0004 µM; in assay [2] (Aβ40, 24 h incubation), 0.0231 µM; at Cathepsin D (Cat D), 8.56 µM.
For the compound `Cc1cc(OC(F)F)cnc1C(=O)Nc1ccc(F)c([C@@]2(CF)CS(=O)(=O)C3(CCC3)C(N)=N2)c1` [Example 411, N-(3-((7R)-9-amino-7-(fluoromethyl)-5,5-dioxido-5-thia-8-azaspiro[3.5]non-8-en-7-yl)-4-fluorophenyl)-5-(difluoromethoxy)-3-methyl-2-pyridinecarboxamide], the IC50 in assay [1] is 3.51 µM; in assay [2] it was over 15.6 µM; at Cathepsin D (Cat D) it was 514 µM.
Turning to `CC1(C)C(N)=N[C@](C)(c2cc(Oc3nccc4ccccc34)ccc2F)CS1(=O)=O` [Example 294, (5R)-5-(2-fluoro-5-(1-isoquinolinyloxy)phenyl)-2,2,5-trimethyl-5,6-dihydro-2H-1,4-thiazin-3-amine 1,1-dioxide], the 50% inhibitory concentration (IC50) in assay [1] (average IC50, enzyme assay) was determined as 1.05 µM; in assay [2] (average IC50, HEK cell assay), 1.14 µM; on Cathepsin D (Cat D) it was 202 µM.
`Cc1cc(OCC(F)(F)F)cnc1C(=O)Nc1cnc(F)c([C@]2(C)CS(=O)(=O)C3(CCC3)C(N)=N2)c1` [Example 350, N-(5-((7R)-9-amino-7-methyl-5,5-dioxido-5-thia-8-azaspiro[3.5]non-8-en-7-yl)-6-fluoro-3-pyridinyl)-3-methyl-5-(2,2,2-trifluoroethoxy)-2-pyridinecarboxamide]: the IC50 in assay [1] (average IC50, enzyme assay) is 0.00606 µM; in assay [2] (average IC50, HEK cell assay), 0.0345 µM; on Cathepsin D (Cat D), over 400 µM.
For `CC1(C)C(N)=N[C@](C)(c2cc(Nc3nccc4nc(C(F)(F)F)cnc34)ccc2F)CS1(=O)=O` [Example 55, N-(3-((3R)-5-amino-3,6,6-trimethyl-1,1-dioxido-3,6-dihydro-2H-1,4-thiazin-3-yl)-4-fluorophenyl)-2-(trifluoromethyl)pyrido[3,4-b]pyrazin-5-amine], the concentration for half-maximal inhibition (IC50) in assay [1] is 0.0052 µM; in assay [2] (Aβ40, 24 h incubation) it was 0.0346 µM; at Cathepsin D (Cat D), over 133 µM.
As for `C[C@@]1(c2cc(NC(=O)c3ccc(Cl)cn3)ccc2F)CS(=O)(=O)[C@]2(C[C@@H](F)C2)C(N)=N1` [Example 125, N-(3-((2S,4s,7R)-9-amino-2-fluoro-7-methyl-5,5-dioxido-5-thia-8-azaspiro[3.5]non-8-en-7-yl)-4-fluorophenyl)-5-chloropicolinamide], the results for the IC50 (in assay [1]; in assay [2]; on Cathepsin D (Cat D)) were 0.001 µM, 0.0107 µM and 42.8 µM, respectively.
In the case of `C[C@@]1(c2cccc(Br)c2)CS(=O)(=O)C2(CCC2)C(N)=N1` [Example 154, (R)-9-amino-7-(3-bromophenyl)-7-methyl-5-thia-8-azaspiro[3.5]non-8-ene 5,5-dioxide], the IC50 in assay [1] (average IC50, enzyme assay) was found to be 6.06 µM; in assay [2] (average IC50, cell assay), 2.39 µM; at Cathepsin D (Cat D) it was 31.2 µM.
Turning to `Cc1cc(Cl)cnc1C(=O)Nc1ccc(F)c([C@]2(CF)CS(=O)(=O)C3(CCC3)C(N)=N2)c1` [Example 366, N-(3-((7S)-9-amino-7-(fluoromethyl)-5,5-dioxido-5-thia-8-azaspiro[3.5]non-8-en-7-yl)-4-fluorophenyl)-5-chloro-3-methyl-2-pyridinecarboxamide], the IC50 in assay [1] (average IC50, enzyme assay) came to 0.00079 µM; in assay [2] (average IC50, HEK cell assay), 0.0141 µM; at Cathepsin D (Cat D), 241 µM.
On the same counts, the results for `Cc1cc(Cl)cnc1C(=O)Nc1ccc(F)c([C@@]2(C)N=C(N)C(C)(C)S(=O)(=O)C23CC3)c1` [Example 340, N-(3-((8R)-6-amino-5,5,8-trimethyl-4,4-dioxido-4-thia-7-azaspiro[2.5]oct-6-en-8-yl)-4-fluorophenyl)-5-chloro-3-methyl-2-pyridinecarboxamide] are 0.0051 µM, 0.0044 µM and 20 µM.
For `CC1(C)C(N)=N[C@](C)(c2cc(Oc3ncc(C(N)=O)c4sccc34)ccc2F)CS1(=O)=O` [Example 292, 4-(3-((3R)-5-amino-3,6,6-trimethyl-1,1-dioxido-3,6-dihydro-2H-1,4-thiazin-3-yl)-4-fluorophenoxy)thieno[3,2-c]pyridine-7-carboxamide], the IC50 in assay [1] (average IC50, enzyme assay) is 2.01 µM; in assay [2] (average IC50, HEK cell assay), 2.23 µM; at Cathepsin D (Cat D) it was 219 µM.
In the case of `Cc1cc(OCCF)cnc1C(=O)Nc1ccc(F)c([C@]2(CF)CS(=O)(=O)C(C)(C)C(N)=N2)c1` [Example 149, (S)—N-(3-(5-amino-3-(fluoromethyl)-6,6-dimethyl-1,1-dioxido-3,6-dihydro-2H-1,4-thiazin-3-yl)-4-fluorophenyl)-5-(2-fluoroethoxy)-3-methylpicolinamide], the IC50 in assay [1] (average IC50, enzyme assay) worked out at 0.00271 µM; in assay [2] (average IC50, cell assay), 0.0651 µM; on Cathepsin D (Cat D), 855 µM.
As for `COc1cnc(C(=O)Nc2cc(C3(C)CS(=O)(=O)C(C)(C)C(N)=N3)c(F)cn2)cn1` (stereo not drawn) [Example 41, N-(4-(5-amino-3,6,6-trimethyl-1,1-dioxido-3,6-dihydro-2H-1,4-thiazin-3-yl)-5-fluoropyridin-2-yl)-5-methoxypyrazine-2-carboxamide], the IC50 is 0.252 µM in assay [1]; 0.935 µM in assay [2] (Aβ40, 24 h incubation); 333 µM at Cathepsin D (Cat D).
As to `C[C@@]1(c2cc(Nc3nccc4cc(Cl)cnc34)ccc2F)CS(=O)(=O)CC(N)=N1` [Example 57, N-(3-((3R)-5-amino-3-methyl-1,1-dioxido-3,6-dihydro-2H-1,4-thiazin-3-yl)-4-fluorophenyl)-3-chloro-1,7-naphthyridin-8-amine], the IC50 in assay [1] turned out to be 0.0043 µM; in assay [2] (Aβ40, 24 h incubation), 0.019 µM; on Cathepsin D (Cat D), 134 µM.
On to `Cc1cc(C#N)cnc1C(=O)Nc1ccc(F)c([C@]2(C)CS(=O)(=O)[C@@](C)(F)C(N)=N2)c1` [Example 324, N-(3-((3R,6R)-5-amino-6-fluoro-3,6-dimethyl-1,1-dioxido-3,6-dihydro-2H-1,4-thiazin-3-yl)-4-fluorophenyl)-5-cyano-3-methyl-2-pyridinecarboxamide], for which the IC50 came out at 0.00102 µM in assay [1] (average IC50, enzyme assay); 0.0651 µM in assay [2] (average IC50, HEK cell assay); 1370 µM at Cathepsin D (Cat D).
Turning to `C[C@]1(F)C(N)=N[C@](C)(c2cc(Nc3ncnc4cc(C#N)cnc34)ccc2F)CS1(=O)=O` [Example 180, 4-((3-((3R,6R)-5-Amino-6-fluoro-3,6-dimethyl-1,1-dioxido-3,6-dihydro-2H-1,4-thiazin-3-yl)-4-fluorophenyl)amino)pyrido[3,2-d]pyrimidine-7-carbonitrile], the IC50 in assay [1] (average IC50, enzyme assay) stood at 0.0011 µM; in assay [2] (average IC50, cell assay), 0.0894 µM; on Cathepsin D (Cat D), 65.5 µM.

Values taken from patent US20140107109A1, “AMINO-DIHYDROTHIAZINE AND AMINO-DIOXIDO DIHYDROTHIAZINE COMPOUNDS AS BETA-SECRETASE ANTAGONISTS AND METHODS OF USE” (Amgen Inc., priority 2012, published 2014).
